For experiment [1], the system named is SH-SY5Y human neuroblastoma cells. Briefly: Generation of intracellular reactive oxygen species (ROS) after hydrogen peroxide, DCFDA fluorescence. It counts as cell-based. An excerpt: To determine the production of free radicals, the fluorescent probe 2″-7″-dichlorodihydrofluorescein diacetate (DCFDA) was used, which is sensitive to the presence of free radicals, such that when the latter are intracellularly generated there is an increase of fluorescence.
When the fluorescent probe passes into the cell, intracellular esterases hydrolyze the probe, transforming it into DCFH2. Peroxidases, cytochrome C and Fe^2+ can oxidize the probe to DCF in the presence of hydrogen peroxide, and the accumulation of DCF in the cell can be measured as an increase of fluorescence at 530 nm when it is excited at 485 nm.
SH-SY5Y human neuroblastoma cells were cultured following the procedure described in Example 3.
For the fluorescence assays, the cells were seeded in 96-well plates with opaque walls at a density of 10,000 cells/well. […]
To evaluate the effects of compound Ic on the generation of ROS, the cells were incubated with increasing concentrations of compound Ic (0.01 and 0.1 μM) for 24 hours and then they were preincubated with the fluorescent probe DCFDA for 45 minutes. Subsequently, the baseline fluorescence of each well, both of the wells containing cells and compound Ic and of those containing only the cells, was quantified. […] The baseline fluorescence of each well containing compound Ic was subtracted from it in order to obtain the net fluorescence. […]

Experiment [2] shares this test system. Kind of experiment: Neuroprotection against cell death induced by rotenone plus oligomycin-A (oxidative stress), LDH release. It counts as cell-based. As for the experimental part: An oxidative stress model consists of blocking mitochondrial respiratory chain complexes I and V by means of the combination of rotenone plus oligomycin-A, respectively. As a result of the interruption of the mitochondrial respiratory chain, the cell is unable to continue producing ATP, and the free radicals are generated exceeding the capacity of the cell to neutralize them, and as a result, cell death occurs.
SH-SY5Y human neuroblastoma cells were cultured in a monolayer in 75 cm^2 flasks with a vented stopper. The culture medium used was Dulbecco's Modified Eagle's Medium (DMEM) with a high glucose content ([…]) and supplemented with 10% foetal bovine serum, 2 mM L-Glutamine, 50 IU/mL penicillin and 50 μg/mL streptomycin.
The cell cultures were maintained in an incubator at 37° C. in a humid environment, with 5% CO2 and 95% air. The culture medium was changed twice a week, performing 1:4 passages when the cells reached 70-80% confluence. To perform the passages, the cells were detached by means of their treatment with trypsin-EDTA.
For the cell viability assays, the cells were seeded in sterile 48-well plates at a density of 80,000 cells/well. The experiments were performed 24-48 hours after their seeding.
To evaluate the neuroprotective effect of the compounds, the SH-SY5Y cells were preincubated for 24 hours with the compound under study, and subsequently incubated for 24 hours with the compound under study in the presence of the toxic substances (a combination of 10 μM rotenone and 1 μM oligomycin-A); at the end of this period the cell viability was evaluated by quantifying the release of the LDH enzyme.
The assessment of this enzyme was performed by means of a commercial kit (Cytotoxicity detection kit-LDH; Roche) following the instructions of the company. The samples were colorimetrically analyzed in a plate reader (Labsystems iEMS Reader MF), using the suitable filter at 490-600 nm and obtaining the absorbance values.
The % of cell death was defined as the % of LDH released into the extracellular medium with respect to the total (sum of intra- and extracellular LDH).
Compounds Ic and Ib were studied at four concentrations (0.001, 0.003, 0.01 and 0.03 μM), chondroitin sulphate (supplied by Bioibérica, S.A.) was assayed at two concentrations (10 and 60 μM) and trolox (Sigma Aldrich) was assayed at two concentrations (30 and 300 μM). The experiment also included the baseline (SH-SY5Y cells in the absence of compound and of toxic stimulus) and the control (SH-SY5Y cells cultured in the absence of compound and in the presence of the toxic stimulus rotenone plus oligomycin).
On the technique in general: LDH leaks from cells whose membrane has failed.

For “methyl 2-acetamido-2-deoxy-3-O-(β-D-glucopyranosyluronic acid)-4,6-di-O-sulpho-α-D-glucopyranoside, trisodium salt [compound Ic]”, in experiment [1] (0.1 μM, 24 hours incubation before 50 μM hydrogen peroxide), the “reduction in the formation of free radicals induced by hydrogen peroxide” value was determined as 40%. For the same substance, the “ROS generated by hydrogen peroxide at 30 and 60 minutes” value in experiment [1] (cells treated 24 hours with compound (0.01 and 0.1 μM) before 50 μM hydrogen peroxide) is listed as “significantly reduced”. Moreover, the “maximum statistically significant protection against cell death (% of released LDH) induced by rotenone and oligomycin” value in experiment [2] (0.03 μM, 24 h preincubation + 24 h with 10 μM rotenone and 1 μM oligomycin-A) is recorded as 47%. Also, the “protective effect compared with chondroitin sulphate and trolox” value in experiment [2] (Ic, Ib at 0.001-0.03 μM vs chondroitin sulphate 10 and 60 μM, trolox 30 and 300 μM) was “more effective than chondroitin sulphate and than trolox”.

(Values after US8785416B2, “Sulphated disaccharides for the treatment of neurodegenerative and/or neurovascular diseases” (Bioiberica, S.A., priority 2009, dated 2014).)
